Here are results for 22 compounds from patent publication US8283361B2 (AstraZeneca AB, priority 2008, dated 2012).

Each structure is given as a SMILES string. Structures can show the parent of a compound that is named as a salt.

Sequence of S. aureus GyrB ATPase (P0A0K8 whole entry): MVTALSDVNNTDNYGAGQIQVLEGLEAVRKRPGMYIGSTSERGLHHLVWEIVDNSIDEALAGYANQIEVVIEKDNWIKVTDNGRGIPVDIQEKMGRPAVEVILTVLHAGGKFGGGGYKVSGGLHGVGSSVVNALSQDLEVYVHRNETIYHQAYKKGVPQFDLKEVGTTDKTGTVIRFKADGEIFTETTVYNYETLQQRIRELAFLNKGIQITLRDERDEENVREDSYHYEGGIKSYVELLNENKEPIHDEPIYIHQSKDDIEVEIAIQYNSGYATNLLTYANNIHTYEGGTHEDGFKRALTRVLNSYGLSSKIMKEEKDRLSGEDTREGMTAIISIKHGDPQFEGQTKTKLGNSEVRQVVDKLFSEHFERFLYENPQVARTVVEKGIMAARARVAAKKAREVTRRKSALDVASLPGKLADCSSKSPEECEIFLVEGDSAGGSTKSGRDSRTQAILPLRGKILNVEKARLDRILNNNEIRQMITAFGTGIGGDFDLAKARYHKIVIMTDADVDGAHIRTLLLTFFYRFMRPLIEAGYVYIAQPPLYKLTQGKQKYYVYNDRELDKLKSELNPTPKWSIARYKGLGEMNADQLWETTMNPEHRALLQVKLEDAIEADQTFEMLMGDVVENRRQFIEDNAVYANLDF
Sequence of S. aureus GyrB ATPase (P0AES4 whole entry, further chain): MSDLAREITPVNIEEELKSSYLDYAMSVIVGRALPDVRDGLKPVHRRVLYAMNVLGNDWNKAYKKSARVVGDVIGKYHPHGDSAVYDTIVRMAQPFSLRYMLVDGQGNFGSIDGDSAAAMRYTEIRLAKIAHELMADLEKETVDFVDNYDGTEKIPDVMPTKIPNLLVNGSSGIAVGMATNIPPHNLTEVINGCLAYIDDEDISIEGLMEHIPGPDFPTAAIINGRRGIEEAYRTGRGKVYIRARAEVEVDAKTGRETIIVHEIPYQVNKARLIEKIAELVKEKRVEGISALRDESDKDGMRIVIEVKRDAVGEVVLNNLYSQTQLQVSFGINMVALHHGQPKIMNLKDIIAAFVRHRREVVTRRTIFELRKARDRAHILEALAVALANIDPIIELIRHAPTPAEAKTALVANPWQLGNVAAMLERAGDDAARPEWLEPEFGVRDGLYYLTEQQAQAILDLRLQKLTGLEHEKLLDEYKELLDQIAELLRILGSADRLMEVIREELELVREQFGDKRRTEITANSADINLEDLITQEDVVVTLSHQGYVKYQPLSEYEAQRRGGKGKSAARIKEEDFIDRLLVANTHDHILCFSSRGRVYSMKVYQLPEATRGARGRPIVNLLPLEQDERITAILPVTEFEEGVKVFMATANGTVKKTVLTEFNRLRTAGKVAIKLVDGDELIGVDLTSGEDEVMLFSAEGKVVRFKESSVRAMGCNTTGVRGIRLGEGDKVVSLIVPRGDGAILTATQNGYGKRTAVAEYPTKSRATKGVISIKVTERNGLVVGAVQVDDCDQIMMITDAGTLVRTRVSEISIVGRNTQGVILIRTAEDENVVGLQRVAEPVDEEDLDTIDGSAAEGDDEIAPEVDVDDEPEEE

The first test concerns the target S. aureus GyrB ATPase (Staphylococcus aureus, UniProt P0A0K8). As to the kind of experiment: biochemical. The following applies: compound at 1 μM; one value per test if tested more than once; 1 µM. As to the method: S. aureus GyrB ATPase Inhibition Activity: Compounds may be tested for inhibition of S. aureus GyrB ATPase activity using an ammonium molybdate/malachite green-based phosphate detection assay (Lanzetta, P. A., L. J. Alvarez, P. S. Reinach, and O. A. Candia, 1979, 100: 95-97). Assays can be performed in multiwell plates in 30 μl reactions containing: 50 mM Hepes buffer pH 7.5, 75 mM ammonium acetate, 8.0 mM magnesium chloride, 0.5 mM ethylenediaminetetraacetic acid, 5% glycerol, 1.0 mM 1,4-Dithio-DL-threitol, 200 nM bovine serum albumin, 1.0 μg/m1 sheared salmon sperm DNA, 250 pM E. coli GyrA, 250 pM S. aureus GyrB, 250 μM ATP, and compound in dimethylsulfoxide. Reactions can be quenched with 30 μl of ammonium molybdate/malachite green detection reagent containing 1.2 mM malachite green hydrochloride, 8.5 mM ammonium molybdate tetrahydrate, and 1 M hydrochloric acid. […] An IC50 measurement of compound potency for each compound can be determined from reactions performed in the presence of 10 different compound concentrations.
Regarding `CCNC(=O)Nc1cc(-c2nc(C(F)(F)F)cs2)c(-c2ccc3c(c2)c(=O)c(C(=O)O)cn3[C@H](CO)CC(C)C)cn1` [Example 95, (S)-6-(6-(3-ethylureido)-4-(4-(trifluoromethyl)thiazol-2-yl)pyridin-3-yl)-1-(1-hydroxy-4-methylpentan-2-yl)-4-oxo-1,4-dihydroquinoline-3-carboxylic acid], the “% Inhibition of S. aureus GyrB ATPase” value is 109%.

Staying with this test, now noted: compound at 1 μM; one value per test if tested more than once; read-out: % Inhibition of S. aureus GyrB ATPase.
One may read the inhibition as the drop in the measured response relative to a control, in per cent. With `CCNC(=O)Nc1cc(-c2nc(C(F)(F)F)cs2)c(-c2ccc3c(c2)c(=O)c(C(=O)O)cn3[C@H](CC)CO)cn1` [Example 79, (R)-6-(6-(3-ethylureido)-4-(4-(trifluoromethyl)thiazol-2-yl)pyridin-3-yl)-1-(1-hydroxybutan-2-yl)-4-oxo-1,4-dihydroquinoline-3-carboxylic acid], the inhibition at 1 µM was determined as 97%.

For `CCNC(=O)Nc1cc(-c2nc(C(F)(F)F)cs2)c(-c2ccc3c(c2)c(=O)c(C(=O)O)cn3C(CO)C2CCOCC2)cn1` (stereo not shown) [Example 80, 6-(6-(3-ethylureido)-4-(4-(trifluoromethyl)thiazol-2-yl)pyridin-3-yl)-1-(-hydroxy-1-(tetrahydro-H-pyran-4-yl)ethyl)-4-oxo-1,4-dihydroquinoline-3-carboxylic acid], the inhibition at 1 µM came to 96%.

On to `CCNC(=O)Nc1cc(-c2nc(C(F)(F)F)cs2)c(-c2ccc3c(c2)c(=O)c(C(=O)O)cn3[C@H](CO)C(C)(C)C)cn1` [Example 81, 6-{6-[(ethylcarbamoyl)amino]-4-[4-(trifluoromethyl)-1,3-thiazol-2-yl]pyridin-3-yl}-1-[(1S)-1-(hydroxymethyl)-2,2-dimethylpropyl]-4-oxo-1,4-dihydroquinoline-3-carboxylic acid], for which the inhibition at 1 µM came to 96%.

For the compound `CCNC(=O)Nc1cc(-c2nc(C(F)(F)F)cs2)c(-c2ccc3c(c2)c(=O)c(C(=O)O)cn3[C@H](CO)C(C)C)cn1` [Example 82, 6-{6-[(ethylcarbamoyl)amino]-4-[4-(trifluoromethyl)-1,3-thiazol-2-yl]pyridin-3-yl}-1-[(1S)-1-(hydroxymethyl)-2-methylpropyl]-4-oxo-1,4-dihydroquinoline-3-carboxylic acid], the inhibition at 1 µM was 111%.

Turning to `CCNC(=O)Nc1cc(-c2nc(C(F)(F)F)cs2)c(-c2ccc3c(c2)c(=O)c(C(=O)O)cn3[C@H](CO)CC(C)C)cn1` [Example 83, (S)-6-(6-(3-ethylureido)-4-(4-(trifluoromethyl)thiazol-2-yl)pyridin-3-yl)-1-(1-hydroxy-4-methylpentan-2-yl)-4-oxo-1,4-dihydroquinoline-3-carboxylic acid], the inhibition at 1 µM turned out to be 96%.

For the compound `CCCNC(=O)Nc1cc(-c2nc(C(F)(F)F)cs2)c(-c2ccc3c(c2)c(=O)c(C(=O)O)cn3[C@H](CO)C(C)(C)C)cn1` [Example 84, (S)-1-(1-hydroxy-3,3-dimethylbutan-2-yl)-4-oxo-6-(6-(3-propylureido)-4-(4-(trifluoromethyl)thiazol-2-yl)pyridin-3-yl)-1,4-dihydroquinoline-3-carboxylic acid], the inhibition at 1 µM was determined as 95%.

As for `CCNC(=O)Nc1cc(-c2nc(C(F)(F)F)cs2)c(-c2ccc3c(c2)c(=O)c(C(=O)O)cn3[C@@H](CO)C(C)C)cn1` [Example 85, (R)-6-(6-(3-ethylureido)-4-(4-(trifluoromethyl)thiazol-2-yl)pyridin-3-yl)-1-(1-hydroxy-3-methylbutan-2-yl)-4-oxo-1,4-dihydroquinoline-3-carboxylic acid], the inhibition at 1 µM came out at 96%.

Consider `CCNC(=O)Nc1cc(-c2nc(C(F)(F)F)cs2)c(-c2ccc3c(c2)c(=O)c(C(=O)O)cn3[C@@H](CC)CO)cn1` [Example 86, (S)-6-(6-(3-ethylureido)-4-(4-(trifluoromethyl)thiazol-2-yl)pyridin-3-yl)-1-(1-hydroxybutan-2-yl)-4-oxo-1,4-dihydroquinoline-3-carboxylic acid], for which the inhibition at 1 µM stood at 98%.

Take `CCCNC(=O)Nc1cc(-c2nc(C(F)(F)F)cs2)c(-c2ccc3c(c2)c(=O)c(C(=O)O)cn3[C@H](CO)CC(C)C)cn1` [Example 87, (S)-1-(1-hydroxy-4-methylpentan-2-yl)-4-oxo-6-(6-(3-propylureido)-4-(4-(trifluoromethyl)thiazol-2-yl)pyridin-3-yl)-1,4-dihydroquinoline-3-carboxylic acid]: the inhibition at 1 µM came to 96%.

As for `CCNC(=O)Nc1cc(-c2nc(C(F)(F)F)cs2)c(-c2ccc3c(c2)c(=O)c(C(=O)O)cn3C[C@@H]2CCCO2)cn1` [Example 88, (S)-6-(6-(3-ethylureido)-4-(4-(trifluoromethyl)thiazol-2-yl)pyridin-3-yl)-4-oxo-1-((tetrahydrofuran-2-yl)methyl)-1,4-dihydroquinoline-3-carboxylic acid], the inhibition at 1 µM turned out to be 90%.

For the compound `CCNC(=O)Nc1cc(-c2nc(C(F)(F)F)cs2)c(-c2ccc3c(c2)c(=O)c(C(=O)O)cn3CCC2CCN(C)CC2)cn1` [Example 89, 6-(6-(3-ethylureido)-4-(4-(trifluoromethyl)thiazol-2-yl)pyridin-3-yl)-1-(2-(1-methylpiperidin-4-yl)ethyl)-4-oxo-1,4-dihydroquinoline-3-carboxylic acid], the inhibition at 1 µM came to 91%.

In the case of `CCNC(=O)Nc1cc(-c2nc(C(F)(F)F)cs2)c(-c2ccc3c(c2)c(=O)c(C(=O)O)cn3CC2CCOCC2)cn1` [Example 90, 6-(6-(3-ethylureido)-4-(4-(trifluoromethyl)thiazol-2-yl)pyridin-3-yl)-4-oxo-1-((tetrahydro-2H-pyran-4-yl)methyl)-1,4-dihydroquinoline-3-carboxylic acid], the inhibition at 1 µM came out at 97%.

Take `CCNC(=O)Nc1cc(-c2nc(C(F)(F)F)cs2)c(-c2ccc3c(c2)c(=O)c(C(=O)O)cn3C(CC)CO)cn1` (stereo not shown) [Example 93, 6-(6-(3-ethylureido)-4-(4-(trifluoromethyl)thiazol-2-yl)pyridin-3-yl)-1-(1-hydroxybutan-2-yl)-4-oxo-1,4-dihydroquinoline-3-carboxylic acid]: the inhibition at 1 µM came to 95%.

Regarding `CCNC(=O)Nc1cc(-c2nc(C(F)(F)F)cs2)c(-c2ccc3c(c2)c(=O)c(C(=O)O)cn3CC2CCN(C)CC2)cn1` [Example 94, 6-(6-(3-ethylureido)-4-(4-(trifluoromethyl)thiazol-2-yl)pyridin-3-yl)-1-((1-methylpiperidin-4-yl)methyl)-4-oxo-1,4-dihydroquinoline-3-carboxylic acid], the inhibition at 1 µM was 95%.

`CCNC(=O)Nc1cc(-c2nc(C(F)(F)F)cs2)c(-c2ccc3c(c2)c(=O)c(C(=O)NC)cn3[C@H](CO)CC(C)C)cn1` [Example 96, (S)-6-(6-(3-ethylureido)-4-(4-(trifluoromethyl)thiazol-2-yl)pyridin-3-yl)-1-(1-hydroxy-4-methylpentan-2-yl)-N-methyl-4-oxo-1,4-dihydroquinoline-3-carboxamide]: the inhibition at 1 µM was 95%.

`CCNC(=O)Nc1cc(-c2nc(C(F)(F)F)cs2)c(-c2ccc3c(c2)c(=O)c(C(=O)O)cn3C2(CO)CCOCC2)cn1` [Example 122, 6-(6-(3-ethylureido)-4-(4-(trifluoromethyl)thiazol-2-yl)pyridin-3-yl)-1-(4-(hydroxymethyl)tetrahydro-2H-pyran-4-yl)-4-oxo-1,4-dihydroquinoline-3-carboxylic acid]: the inhibition at 1 µM worked out at 95%.

Consider `CCNC(=O)Nc1cc(-c2nc(C(F)(F)F)cs2)c(-c2ccc3c(c2)c(=O)c(C(=O)O)cn3CC2CCCCN2)cn1` (stereo not shown) [Example 123, 6-(6-(3-ethylureido)-4-(4-(trifluoromethyl)thiazol-2-yl)pyridin-3-yl)-4-oxo-1-(piperidin-2-ylmethyl)-1,4-dihydroquinoline-3-carboxylic acid], for which the inhibition at 1 µM is 95%.

With `CCNC(=O)Nc1cc(-c2nc(C(F)(F)F)cs2)c(-c2ccc3c(c2)c(=O)c(C(=O)O)cn3Cc2ccncc2)cn1` [Example 124, 6-(6-(3-ethylureido)-4-(4-(trifluoromethyl)thiazol-2-yl)pyridin-3-yl)-4-oxo-1-(pyridin-4-ylmethyl)-1,4-dihydroquinoline-3-carboxylic acid], the inhibition at 1 µM is 87%.

As for `CCNC(=O)Nc1cc(-c2nc(C(F)(F)F)cs2)c(-c2ccc3c(c2)c(=O)c(C(=O)O)cn3Cc2cn(C)cn2)cn1` [Example 125, 6-(6-(3-ethylureido)-4-(4-(trifluoromethyl)thiazol-2-yl)pyridin-3-yl)-1-((1-methyl-1H-imidazol-4-yl)methyl)-4-oxo-1,4-dihydroquinoline-3-carboxylic acid], the inhibition at 1 µM was found to be 93%.

Take `CCNC(=O)Nc1cc(-c2nc(C(F)(F)F)cs2)c(-c2ccc3c(c2)c(=O)c(C(=O)O)cn3C(C)CN(C)C)cn1` (stereo not shown) [Example 126, 1-(1-(dimethylamino)propan-2-yl)-6-(6-(3-ethylureido)-4-(4-(trifluoromethyl)thiazol-2-yl)pyridin-3-yl)-4-oxo-1,4-dihydroquinoline-3-carboxylic acid]: the inhibition at 1 µM worked out at 117%.

Regarding `CCNC(=O)Nc1cc(-c2nc(C(F)(F)F)cs2)c(-c2ccc3c(c2)c(=O)c(C(=O)O)cn3CC2CCCCN2C)cn1` (stereo not shown) [Example 127, 6-(6-(3-ethylureido)-4-(4-(trifluoromethyl)thiazol-2-yl)pyridin-3-yl)-1-((1-methylpiperidin-2-yl)methyl)-4-oxo-1,4-dihydroquinoline-3-carboxylic acid, formic acid salt], the inhibition at 1 µM amounted to 117%.
